Reference: patent publication US20090281121A1, “SUBSTITUTED 8-PIPERIDINYL-2-PYRIDINYL-PYRIMIDO[1,2-a] PYRIMIDIN-6-ONE AND 8-PIPERIDINYL-2-PYRIMIDINYL-PYRIMIDO[1,2-a] PYRIMIDIN-6-ONE DERIVATIVES” (SANOFI-AVENTIS, priority 2006, published 2009)
Counter-ions that a name gives are not always drawn.

Legend:
GSK3β = GSK3β (Homo sapiens, UniProt P49841); experiment: Inhibitory activity against GSK3β (33P-ATP phosphorylation of prephosphorylated GS1 peptide, two protocols); assay type: biochemical; details: first or second protocol not specified
Description: Two different protocols can be used.
In a first protocol: 7.5 μM of prephosphorylated GS1 peptide and 10 μM ATP (containing 300,000 cpm of 33P-ATP) were incubated in 25 mM Tris-HCl, pH 7.5, 0.6 mM DTT, 6 mM MgCl2, 0.6 mM EGTA, 0.05 mg/ml BSA buffer for 1 hour at room temperature in the presence of GSK3beta (total reaction volume: 100 microliters).
In a second protocol: 4.1 μM of prephosphorylated GS1 peptide and 42 μM ATP (containing 260,000 cpm 33P-ATP) were incubated in 80 mM Mes-NaOH, pH 6.5, 1 mM Mg acetate, 0.5 mM EGTA, 5 mM 2-mercaptoethanol, 0.02% Tween 20, 10% glycerol buffer for 2 hours at room temperature in the presence of GSK3beta. Inhibitors were solubilized in DMSO (final solvent concentration in the reaction medium, 1%).
The reaction was stopped with 100 microliters of a solution made of 25 g polyphosphoric acid (85% P2O5), 126 ml 85% H3PO4, H2O to 500 ml and then diluted to 1:100 before use. An aliquot of the reaction mixture was then transferred to Whatman P81 cation exchange filters and rinsed with the solution described above. Incorporated 33P radioactivity was determined by liquid scintillation spectrometry.
The phosphorylated GS-1 peptide had the following sequence NH2-[…](P)EDEE-COOH. (Woodgett, J. R. (1989) Analytical Biochemistry 180, 237-241.

Sequence of GSK3β (P49841 whole entry): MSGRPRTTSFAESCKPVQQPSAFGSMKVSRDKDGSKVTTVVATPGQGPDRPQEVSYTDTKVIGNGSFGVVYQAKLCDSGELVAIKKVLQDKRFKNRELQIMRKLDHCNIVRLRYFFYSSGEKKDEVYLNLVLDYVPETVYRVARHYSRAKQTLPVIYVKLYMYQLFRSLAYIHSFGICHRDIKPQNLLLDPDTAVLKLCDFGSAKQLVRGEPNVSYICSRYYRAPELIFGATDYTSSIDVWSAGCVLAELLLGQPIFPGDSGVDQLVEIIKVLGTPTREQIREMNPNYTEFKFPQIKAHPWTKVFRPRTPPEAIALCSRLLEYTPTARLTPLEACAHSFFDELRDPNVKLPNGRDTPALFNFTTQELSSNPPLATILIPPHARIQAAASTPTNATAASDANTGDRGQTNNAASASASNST

`COc1cc(F)ccc1CCN1c2nc(-c3ccncc3)cc(=O)n2CCC1C1CCNCC1` (racemic) [compound 7, (+/−)9-[2-(4-fluoro-2-methoxy-phenyl)ethyl]-8-(4-piperidinyl)-2-(4-pyridinyl)-6,7,8,9-tetrahydro-4H-pyrimido[1,2-a]pyrimidin-4-one] gave a melting point of 270 to 272 °C.

In the case of `O=C(CN1c2nc(-c3ccncc3)cc(=O)n2CCC1C1CCNCC1)c1cccc(Br)c1` (racemic) (as salt: hydrochloride) [compound 8, (−)9-[2-Oxo-2-(3-bromo-phenyl)ethyl]-8-(4-piperidinyl)-2-(4-pyridinyl)-6,7,8,9-tetrahydro-4H-pyrimido[1,2-a]pyrimidin-4-one], the melting point is reported as 255 to 257 °C.

Work on `O=C(CN1c2nc(-c3ccncc3)cc(=O)n2CCC1C1CCNCC1)c1ccccc1` (racemic) [Compound No. 3, (+/−)-9-(2-Oxo-2-phenylethyl)-8-(4-piperidinyl)-2-(4-pyridinyl)-6,7,8,9-tetrahydro-4H-pyrimido[1,2-a]pyrimidin-4-one] yielded an IC50 (GSK3β) of 12 nM.
